Measured values taken from PubChem BioAssay AID2060485 (Molecular Pharmacology Branch, DTP, NCI, 2025).

System: A375 multi-cell spheroids with HUVEC/MSC, viability
Assay: Anticancer human tumor A375 cell line growth inhibition [GQUAD];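 also: spheroids exposed to compounds for seven days before readout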
Details: for IC50: curve of first compound; for viability, T/C: stronger effect = lower value
How it was run: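 Viability of tumor cells grown as complex spheroids with endothelial and stromal cells, exposed to drug combinations. Top concentration at or near clinical Cmax (else 10 microM), diluted in half-log increments.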

[1] = second compound 0.0316 µM, first compound 0.0316 µM
[2] = second compound 0.0316 µM, first compound 0.1 µM
[3] = second compound 0.0316 µM, first compound 0.316 µM
[4] = second compound 0.0316 µM, first compound 1 µM
[5] = second compound 0.0316 µM, first compound 3.16 µM
[6] = second compound 0.0316 µM, first compound 10 µM
[7] = second compound 0.1 µM, first compound 0.0316 µM
[8] = second compound 0.1 µM, first compound 0.1 µM
[9] = second compound 0.1 µM, first compound 0.316 µM
[10] = second compound 0.1 µM, first compound 1 µM
[11] = second compound 0.1 µM, first compound 3.16 µM
[12] = second compound 0.1 µM, first compound 10 µM
[13] = second compound 0.316 µM, first compound 0.0316 µM
[14] = second compound 0.316 µM, first compound 0.1 µM
[15] = second compound 0.316 µM, first compound 0.316 µM
[16] = second compound 0.316 µM, first compound 1 µM
[17] = second compound 0.316 µM, first compound 3.16 µM
[18] = second compound 0.316 µM, first compound 10 µM
[19] = second compound 1 µM, first compound 0.0316 µM
[20] = second compound 1 µM, first compound 0.1 µM
[21] = second compound 1 µM, first compound 0.316 µM
[22] = second compound 1 µM, first compound 1 µM
[23] = second compound 1 µM, first compound 3.16 µM
[24] = second compound 1 µM, first compound 10 µM
[25] = second compound 3.16 µM, first compound 0.0316 µM
[26] = second compound 3.16 µM, first compound 0.1 µM
[27] = second compound 3.16 µM, first compound 0.316 µM
[28] = second compound 3.16 µM, first compound 1 µM
[29] = second compound 3.16 µM, first compound 3.16 µM
[30] = second compound 3.16 µM, first compound 10 µM
[31] = second compound 10 µM, first compound 0.0316 µM
[32] = second compound 10 µM, first compound 0.1 µM
[33] = second compound 10 µM, first compound 0.316 µM
[34] = second compound 10 µM, first compound 1 µM
[35] = second compound 10 µM, first compound 3.16 µM
[36] = second compound 10 µM, first compound 10 µM

COc1ccc([C@@H](O)c2cc(-c3ncnc4cc(N5CCOCC5)ccc34)c(F)cc2Cl)nn1 + CN(C)c1ccc(Nc2c3ccc(NC(=O)CCN4CCCC4)cc3nc3cc(NC(=O)CCN4CCCC4)ccc23)cc1
IC50 (second compound 0.0316 µM): > 10 µM
IC50 (second compound 0.1 µM): > 10 µM
IC50 (second compound 0.316 µM): > 10 µM
IC50 (second compound 1 µM): > 10 µM
IC50 (second compound 3.16 µM): > 10 µM
IC50 (second compound 10 µM): > 10 µM
viability, T/C [1]: 106%
viability, T/C [2]: 103%
viability, T/C [3]: 106%
viability, T/C [4]: 105%
viability, T/C [5]: 91.9%
viability, T/C [6]: 74.5%
viability, T/C [7]: 107%
viability, T/C [8]: 111%
viability, T/C [9]: 100%
viability, T/C [10]: 108%
viability, T/C [11]: 95.6%
viability, T/C [12]: 71.5%
viability, T/C [13]: 109%
viability, T/C [14]: 101%
viability, T/C [15]: 104%
viability, T/C [16]: 99.7%
viability, T/C [17]: 93%
viability, T/C [18]: 70.7%
viability, T/C [19]: 103%
viability, T/C [20]: 101%
viability, T/C [21]: 108%
viability, T/C [22]: 111%
viability, T/C [23]: 97.6%
viability, T/C [24]: 78.9%
viability, T/C [25]: 104%
viability, T/C [26]: 99.3%
viability, T/C [27]: 106%
viability, T/C [28]: 102%
viability, T/C [29]: 90.5%
viability, T/C [30]: 83.3%
viability, T/C [31]: 110%
viability, T/C [32]: 93.6%
viability, T/C [33]: 98.5%
viability, T/C [34]: 97.7%
viability, T/C [35]: 77%
viability, T/C [36]: 64.2%

Cn1ncnc1[C@H]1c2n[nH]c(=O)c3cc(F)cc(c23)N[C@@H]1c1ccc(F)cc1 + CN(C)c1ccc(Nc2c3ccc(NC(=O)CCN4CCCC4)cc3nc3cc(NC(=O)CCN4CCCC4)ccc23)cc1
IC50 (second compound 0.0316 µM): > 0.316 µM
IC50 (second compound 0.1 µM): > 0.316 µM
IC50 (second compound 0.316 µM): > 0.316 µM
IC50 (second compound 1 µM): > 0.316 µM
IC50 (second compound 3.16 µM): > 0.316 µM
IC50 (second compound 10 µM): > 0.316 µM
viability, T/C (second compound 0.0316 µM, first compound 0.000999 µM): 96.8%
viability, T/C (second compound 0.0316 µM, first compound 0.00316 µM): 104%
viability, T/C (second compound 0.0316 µM, first compound 0.00999 µM): 105%
viability, T/C [1]: 104%
viability, T/C (second compound 0.0316 µM, first compound 0.0999 µM): 105%
viability, T/C [3]: 97.1%
viability, T/C (second compound 0.1 µM, first compound 0.000999 µM): 102%
viability, T/C (second compound 0.1 µM, first compound 0.00316 µM): 102%
viability, T/C (second compound 0.1 µM, first compound 0.00999 µM): 97.2%
viability, T/C [7]: 101%
viability, T/C (second compound 0.1 µM, first compound 0.0999 µM): 103%
viability, T/C [9]: 84.7%
viability, T/C (second compound 0.316 µM, first compound 0.000999 µM): 115%
viability, T/C (second compound 0.316 µM, first compound 0.00316 µM): 93.6%
viability, T/C (second compound 0.316 µM, first compound 0.00999 µM): 101%
viability, T/C [13]: 110%
viability, T/C (second compound 0.316 µM, first compound 0.0999 µM): 107%
viability, T/C [15]: 98.8%
viability, T/C (second compound 1 µM, first compound 0.000999 µM): 111%
viability, T/C (second compound 1 µM, first compound 0.00316 µM): 105%
viability, T/C (second compound 1 µM, first compound 0.00999 µM): 101%
viability, T/C [19]: 110%
viability, T/C (second compound 1 µM, first compound 0.0999 µM): 116%
viability, T/C [21]: 110%
viability, T/C (second compound 3.16 µM, first compound 0.000999 µM): 107%
viability, T/C (second compound 3.16 µM, first compound 0.00316 µM): 98%
viability, T/C (second compound 3.16 µM, first compound 0.00999 µM): 99.8%
viability, T/C [25]: 105%
viability, T/C (second compound 3.16 µM, first compound 0.0999 µM): 106%
viability, T/C [27]: 106%
viability, T/C (second compound 10 µM, first compound 0.000999 µM): 98.3%
viability, T/C (second compound 10 µM, first compound 0.00316 µM): 97.5%
viability, T/C (second compound 10 µM, first compound 0.00999 µM): 97.1%
viability, T/C [31]: 107%
viability, T/C (second compound 10 µM, first compound 0.0999 µM): 104%
viability, T/C [33]: 97.9%

O=C(c1cc(Cc2n[nH]c(=O)c3ccccc23)ccc1F)N1CCN(C(=O)C2CC2)CC1 + CN(C)c1ccc(Nc2c3ccc(NC(=O)CCN4CCCC4)cc3nc3cc(NC(=O)CCN4CCCC4)ccc23)cc1
IC50 (second compound 0.0316 µM): > 10 µM
IC50 (second compound 0.1 µM): > 10 µM
IC50 (second compound 0.316 µM): > 10 µM
IC50 (second compound 1 µM): > 10 µM
IC50 (second compound 3.16 µM): > 10 µM
IC50 (second compound 10 µM): > 10 µM
viability, T/C [1]: 104%
viability, T/C [2]: 95.7%
viability, T/C [3]: 113%
viability, T/C [4]: 99.9%
viability, T/C [5]: 103%
viability, T/C [6]: 81.1%
viability, T/C [7]: 104%
viability, T/C [8]: 102%
viability, T/C [9]: 103%
viability, T/C [10]: 100%
viability, T/C [11]: 102%
viability, T/C [12]: 75.6%
viability, T/C [13]: 101%
viability, T/C [14]: 101%
viability, T/C [15]: 102%
viability, T/C [16]: 105%
viability, T/C [17]: 97.6%
viability, T/C [18]: 77.6%
viability, T/C [19]: 97.1%
viability, T/C [20]: 102%
viability, T/C [21]: 93.8%
viability, T/C [22]: 103%
viability, T/C [23]: 102%
viability, T/C [24]: 86.8%
viability, T/C [25]: 100%
viability, T/C [26]: 97.5%
viability, T/C [27]: 100%
viability, T/C [28]: 101%
viability, T/C [29]: 103%
viability, T/C [30]: 73.6%
viability, T/C [31]: 100%
viability, T/C [32]: 96.4%
viability, T/C [33]: 98.8%
viability, T/C [34]: 103%
viability, T/C [35]: 92.9%
viability, T/C [36]: 66.7%
